Source: patent publication US8580811B2 (Ligand Pharmaceuticals Incorporated, priority 2005, dated 2013)

Molecular target: T1, human AR (Homo sapiens, UniProt P10275)
T1 construct: expressed in transfected cells; host or cells: COS-1 cells
T1 sequence (P10275 1-920): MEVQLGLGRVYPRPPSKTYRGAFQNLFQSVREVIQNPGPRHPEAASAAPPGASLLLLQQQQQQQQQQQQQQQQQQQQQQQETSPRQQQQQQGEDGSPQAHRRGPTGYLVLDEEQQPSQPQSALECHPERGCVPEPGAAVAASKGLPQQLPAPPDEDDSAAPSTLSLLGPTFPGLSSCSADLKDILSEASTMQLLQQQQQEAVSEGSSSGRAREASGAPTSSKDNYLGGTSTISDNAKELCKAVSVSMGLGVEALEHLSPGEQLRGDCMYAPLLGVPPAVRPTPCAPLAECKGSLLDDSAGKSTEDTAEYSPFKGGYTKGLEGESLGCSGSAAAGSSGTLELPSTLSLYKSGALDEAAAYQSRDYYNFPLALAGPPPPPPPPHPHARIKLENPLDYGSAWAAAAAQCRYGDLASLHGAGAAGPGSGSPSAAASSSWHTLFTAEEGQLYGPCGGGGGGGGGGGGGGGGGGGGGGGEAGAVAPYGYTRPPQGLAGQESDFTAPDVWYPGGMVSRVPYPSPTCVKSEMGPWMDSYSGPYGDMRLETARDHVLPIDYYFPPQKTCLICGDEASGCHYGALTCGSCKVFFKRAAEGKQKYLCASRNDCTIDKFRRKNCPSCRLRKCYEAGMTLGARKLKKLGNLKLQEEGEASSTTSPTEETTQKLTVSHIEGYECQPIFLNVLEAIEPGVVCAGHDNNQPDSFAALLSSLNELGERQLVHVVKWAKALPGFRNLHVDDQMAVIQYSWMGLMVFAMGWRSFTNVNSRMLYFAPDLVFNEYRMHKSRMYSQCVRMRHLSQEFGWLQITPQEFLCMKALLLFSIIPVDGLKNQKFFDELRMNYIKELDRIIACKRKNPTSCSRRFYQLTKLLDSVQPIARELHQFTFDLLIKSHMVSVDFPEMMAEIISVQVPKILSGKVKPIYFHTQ
Test: IR Binding Assay: whole cell competitive binding of test compounds against 3H-DHT in COS-1 cells transfected with pRShAR
Settings: not given
In short: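 COS-1 cells transfected with pRShAR plus β-Gal reporter, serum-starved 24 h, then exposed to 1 nM ³H-DHT with compounds at 10^−10 to 10^−6 M for 3 h at 37 °C. Bound ³H-DHT counted in lysates, normalized to β-Gal. IC50 from log-logit plot; Ki via Cheng-Prusoff using Kd from Scatchard saturation analysis.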

Row | SMILES | Ki [nM]
1 | Cc1c(-c2ccc(F)cc2F)[nH]c2ccc3[nH]c(=O)cc(Cl)c3c12 [Compound 117, 9-Chloro-2-(2,4-difluorophenyl)-1-methyl-3,6-dihydro-pyrrolo[3,2-f]quinolin-7-one] | < 5
2 | Cc1c(-c2ccc(Cl)cc2)[nH]c2ccc3[nH]c(=O)cc(Cl)c3c12 [Compound 118, 9-Chloro-2-(4-chlorophenyl)-1-methyl-3,6-dihydro-pyrrolo[3,2-f]quinolin-7-one] | < 5
3 | Cc1c(-c2ccccc2F)[nH]c2ccc3[nH]c(=O)cc(Cl)c3c12 [Compound 119, 9-Chloro-2-(2-fluorophenyl)-1-methyl-3,6-dihydro-pyrrolo[3,2-f]quinolin-7-one] | < 5
4 | Cc1[nH]c2ccc3[nH]c(=O)cc(Cl)c3c2c1CC(=O)O [Compound 122, (9-Chloro-2-methyl-7-oxo-6,7-dihydro-3H-pyrrolo[3,2-f]quinolin-1-yl)-acetic acid] | < 5
5 | CCc1c(-c2cccs2)[nH]c2ccc3[nH]c(=O)cc(Cl)c3c12 [Compound 123, 9-Chloro-1-ethyl-2-thien-2-yl-3,6-dihydro-pyrrolo[3,2-f]quinolin-7-one] | 5 to 10
6 | CCCc1c(C)[nH]c2ccc3[nH]c(=O)cc(Cl)c3c12 [Compound 124, 9-Chloro-2-methyl-1-propyl-3,6-dihydro-pyrrolo[3,2-f]quinolin-7-one] | > 10
7 | O=c1cc(Cl)c2c3c(ccc2[nH]1)N(CC(F)(F)F)[C@@H]1CCC[C@H]31 [Compound 162, (+)-9-Chloro-3-(2,2,2-trifluoroethyl)-1,2-trimethylene-1,2,3,6-tetrahydropyrrolo[3,2-f]quinolin-7-one] | < 5
8 | O=c1cc(Cl)c2c3c(ccc2[nH]1)N(CC(F)(F)F)[C@H]1CCC[C@@H]31 [Compound 163, (−)-9-Chloro-3-(2,2,2-trifluoroethyl)-1,2-trimethylene-1,2,3,6-tetrahydropyrrolo[3,2-f]-quinolin-7-one] | > 10
9 | Cc1c(C)n(CC(F)(F)F)c2ccc3[nH]c(=O)cc(Cl)c3c12 [Compound 184, 9-Chloro-1,2-dimethyl-3-(2,2,2-trifluoroethyl)-3,6-dihydro-pyrrolo[3,2-f]quinolin-7-one] | < 5
10 | CCc1c(C)n(CC(F)(F)F)c2ccc3[nH]c(=O)cc(Cl)c3c12 [Compound 185, 9-Chloro-1-ethyl-2-methyl-3-(2,2,2-trifluoroethyl)-3,6-dihydro-pyrrolo[3,2-f]quinolin-7-one] | < 5
11 | Cc1cc2c3c(Cl)cc(=O)[nH]c3ccc2n1CC(F)(F)F [Compound 186, 9-Chloro-2-methyl-3-(2,2,2-trifluoroethyl)-3,6-dihydro-pyrrolo[3,2-f]quinolin-7-one] | 5 to 10
12 | Cc1c(-c2ccccc2)n(CC(F)(F)F)c2ccc3[nH]c(=O)cc(Cl)c3c12 [Compound 187, 9-Chloro-1-methyl-2-phenyl-3-(2,2,2-trifluoroethyl)-3,6-dihydro-pyrrolo[3,2-f]quinolin-7-one] | < 5
13 | Cc1c(C=O)c2c3c(Cl)cc(=O)[nH]c3ccc2n1Cc1ccccc1 [Compound 188, 3-Benzyl-9-chloro-2-methyl-7-oxo-6,7-dihydro-3H-pyrrolo[3,2-f]quinoline-1-carbaldehyde] | < 5
14 | Cc1c(C)n(CCc2cccs2)c2ccc3[nH]c(=O)cc(Cl)c3c12 [Compound 189, 9-Chloro-1,2-dimethyl-3-(2-thien-2-yl-ethyl)-3,6-dihydro-pyrrolo[3,2-f]quinolin-7-one] | > 10
15 | Cc1c(C)n(CCO)c2ccc3[nH]c(=O)cc(Cl)c3c12 [Compound 190, 9-Chloro-3-(2-hydroxy-ethyl)-1,2-dimethyl-3,6-dihydro-pyrrolo[3,2-f]quinolin-7-one] | > 10
16 | Cc1c(C)n(CC(F)F)c2ccc3[nH]c(=O)cc(Cl)c3c12 [Compound 191, 9-Chloro-3-(2,2-difluoroethyl)-1,2-dimethyl-3,6-dihydro-pyrrolo[3,2-f]quinolin-7-one] | < 5
17 | Cc1c(C=O)c2c3c(Cl)cc(=O)[nH]c3ccc2n1CCO [Compound 192, 9-Chloro-3-(2-hydroxy-ethyl)-2-methyl-7-oxo-6,7-dihydro-3H-pyrrolo[3,2-f]quinoline-1-carbaldehyde] | > 10
18 | CCn1cc(C)c2c3c(Cl)cc(=O)[nH]c3ccc21 [Compound 193, 9-Chloro-3-ethyl-1-methyl-3,6-dihydro-pyrrolo[3,2-f]quinolin-7-one] | 5 to 10
19 | Cc1c(-c2ccc(F)cc2)n(CC(F)(F)F)c2ccc3[nH]c(=O)cc(Cl)c3c12 [Compound 194, 9-Chloro-2-(4-fluorophenyl)-1-methyl-3-(2,2,2-trifluoroethyl)-3,6-dihydro-pyrrolo[3,2-f]quinolin-7-one] | < 5
20 | Cc1c(C)n(CC(F)(F)F)c2cc(F)c3[nH]c(=O)cc(Cl)c3c12 [Compound 195, 9-Chloro-1,2-dimethyl-5-fluoro-3-(2,2,2-trifluoroethyl)-3,6-dihydro-pyrrolo[3,2-f]quinolin-7-one] | < 5
21 | CCn1c(C)c(C)c2c3c(Cl)cc(=O)[nH]c3ccc21 [Compound 196, 9-Chloro-1,2-dimethyl-3-ethyl-3,6-dihydro-pyrrolo[3,2-f]quinolin-7-one] | < 5
22 | COc1ccc(-c2c(C)c3c4c(Cl)cc(=O)[nH]c4ccc3n2CC(F)(F)F)cc1 [Compound 197, 9-Chloro-2-(4-methoxyphenyl)-1-methyl-3-(2,2,2-trifluoroethyl)-3,6-dihydro-pyrrolo[3,2-f]-quinolin-7-one] | < 5
23 | Cc1c(-c2cccc(Br)c2)n(CC(F)(F)F)c2ccc3[nH]c(=O)cc(Cl)c3c12 [Compound 198, 2-(3-Bromophenyl)-9-Chloro-1-methyl-3-(2,2,2-trifluoroethyl)-3,6-dihydro-pyrrolo[3,2-f]-quinolin-7-one] | > 10
24 | Cc1c(-c2ccccc2F)n(CC(F)(F)F)c2ccc3[nH]c(=O)cc(Cl)c3c12 [Compound 199, 9-Chloro-2-(2-fluorophenyl)-1-methyl-3-(2,2,2-trifluoroethyl)-3,6-dihydro-pyrrolo[3,2-f]quinolin-7-one] | < 5
25 | Cc1c(-c2ccc(F)cc2F)n(CC(F)(F)F)c2ccc3[nH]c(=O)cc(Cl)c3c12 [Compound 200, 9-Chloro-2-(2,4-difluorophenyl)-1-methyl-3-(2,2,2-trifluoroethyl)-3,6-dihydro-pyrrolo[3,2-f]-quinolin-7-one] | < 5
26 | Cc1c(-c2cccc(C(F)(F)F)c2)n(CC(F)(F)F)c2ccc3[nH]c(=O)cc(Cl)c3c12 [Compound 201, 9-Chloro-1-methyl-2-(3-trifluoromethylphenyl)-3-(2,2,2-trifluoroethyl)-3,6-dihydro-pyrrolo[3,2-f]-quinolin-7-one] | > 10
27 | Cc1c(-c2ccc(C(F)(F)F)cc2)n(CC(F)(F)F)c2ccc3[nH]c(=O)cc(Cl)c3c12 [Compound 202, 9-Chloro-1-methyl-2-(4-trifluoromethylphenyl)-3-(2,2,2-trifluoroethyl)-3,6-dihydro-pyrrolo[3,2-f]-quinolin-7-one] | > 10
28 | CCc1c(-c2ccccc2)n(CC(F)(F)F)c2ccc3[nH]c(=O)cc(Cl)c3c12 [Compound 203, 9-Chloro-1-ethyl-2-phenyl-3-(2,2,2-trifluoroethyl)-3,6-dihydro-pyrrolo[3,2-f]quinolin-7-one] | < 5
29 | Cc1ccc(-c2c(C)c3c4c(Cl)cc(=O)[nH]c4ccc3n2CC(F)(F)F)cc1 [Compound 204, 9-Chloro-1-methyl-2-(4-methylphenyl)-3-(2,2,2-trifluoroethyl)-3,6-dihydro-pyrrolo[3,2-f]-quinolin-7-one] | < 5
30 | Cc1c(-c2cccc([N+](=O)[O-])c2)n(CC(F)(F)F)c2ccc3[nH]c(=O)cc(Cl)c3c12 [Compound 205, 9-Chloro-1-methyl-2-(3-nitrophenyl)-3-(2,2,2-trifluoroethyl)-3,6-dihydro-pyrrolo[3,2-f]quinolin-7-one] | 5 to 10

Same assay, conditions: competition with 1 nM 3H-DHT, transfected COS-1 cells, 3 h at 37° C., Cheng-Prusoff from IC50; read-out: Ki

Row | SMILES | Ki [nM]
31 | Cc1c(-c2cccs2)[nH]c2ccc3[nH]c(=O)cc(Cl)c3c12 [Compound 120, 9-Chloro-1-methyl-2-thien-2-yl-3,6-dihydro-pyrrolo[3,2-f]quinolin-7-one] | > 10
32 | CC(=O)c1[nH]c2ccc3[nH]c(=O)cc(Cl)c3c2c1C [Compound 121, 2-Acetyl-9-chloro-1-methyl-3,6-dihydro-pyrrolo[3,2-f]quinolin-7-one] | > 10
33 | CCc1c(-c2ccccc2)[nH]c2ccc3[nH]c(=O)cc(Cl)c3c12 [Compound 125, 9-Chloro-1-ethyl-2-phenyl-3,6-dihydro-pyrrolo[3,2-f]quinolin-7-one] | > 10
